Source: publication PMC7881642, “Inducing secondary metabolite production of Aspergillus sydowii through microbial co-culture with Bacillus subtilis” (Microbial Cell Factories, 2021)

Experiments:
CD45 = target: T1, CD45 (Homo sapiens, UniProt P08575); experiment: CD45 inhibitory activity; format: biochemical
T1 sequence (P08575 26-1306): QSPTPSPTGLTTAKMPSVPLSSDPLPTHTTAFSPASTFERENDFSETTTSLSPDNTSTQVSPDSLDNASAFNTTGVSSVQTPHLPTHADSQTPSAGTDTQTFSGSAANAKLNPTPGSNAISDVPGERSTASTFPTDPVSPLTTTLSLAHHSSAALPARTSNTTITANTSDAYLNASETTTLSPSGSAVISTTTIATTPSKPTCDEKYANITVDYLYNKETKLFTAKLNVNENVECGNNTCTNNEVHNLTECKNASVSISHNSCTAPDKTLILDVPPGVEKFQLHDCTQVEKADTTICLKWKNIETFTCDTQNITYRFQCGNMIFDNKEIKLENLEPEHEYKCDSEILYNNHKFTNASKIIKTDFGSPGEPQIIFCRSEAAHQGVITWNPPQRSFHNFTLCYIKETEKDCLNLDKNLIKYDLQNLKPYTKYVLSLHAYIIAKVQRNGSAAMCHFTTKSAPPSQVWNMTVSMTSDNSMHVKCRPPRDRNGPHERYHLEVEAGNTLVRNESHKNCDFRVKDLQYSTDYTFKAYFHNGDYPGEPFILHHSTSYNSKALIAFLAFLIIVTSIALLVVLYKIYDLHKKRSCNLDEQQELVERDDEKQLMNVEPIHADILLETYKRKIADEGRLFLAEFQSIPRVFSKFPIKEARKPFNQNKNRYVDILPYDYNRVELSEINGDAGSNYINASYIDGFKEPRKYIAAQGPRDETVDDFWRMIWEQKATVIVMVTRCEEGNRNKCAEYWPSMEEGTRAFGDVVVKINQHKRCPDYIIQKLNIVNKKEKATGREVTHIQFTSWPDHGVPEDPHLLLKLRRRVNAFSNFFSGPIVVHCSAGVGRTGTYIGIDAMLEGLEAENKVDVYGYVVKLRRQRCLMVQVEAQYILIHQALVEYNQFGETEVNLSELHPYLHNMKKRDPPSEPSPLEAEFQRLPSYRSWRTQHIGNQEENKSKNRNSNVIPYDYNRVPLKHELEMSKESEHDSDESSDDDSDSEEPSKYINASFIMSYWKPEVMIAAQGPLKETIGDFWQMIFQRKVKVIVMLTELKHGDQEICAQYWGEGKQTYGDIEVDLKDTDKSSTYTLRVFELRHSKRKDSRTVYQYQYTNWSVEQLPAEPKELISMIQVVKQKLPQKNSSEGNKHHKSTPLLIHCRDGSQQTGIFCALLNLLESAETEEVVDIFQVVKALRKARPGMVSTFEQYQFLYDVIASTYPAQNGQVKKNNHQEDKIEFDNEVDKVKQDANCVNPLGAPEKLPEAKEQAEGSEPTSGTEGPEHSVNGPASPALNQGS

SHP1 = SHP1 (Homo sapiens, UniProt P29350); experiment: SHP1 inhibitory activity; format: biochemical
PTP1b = target: T2, PTP1b (Homo sapiens, UniProt P18031); experiment: Protein tyrosine phosphatase 1b inhibitory assay (pNPP substrate); format: biochemical; conditions: 37 °C, pH 6.0
T2 sequence (P18031 1-435): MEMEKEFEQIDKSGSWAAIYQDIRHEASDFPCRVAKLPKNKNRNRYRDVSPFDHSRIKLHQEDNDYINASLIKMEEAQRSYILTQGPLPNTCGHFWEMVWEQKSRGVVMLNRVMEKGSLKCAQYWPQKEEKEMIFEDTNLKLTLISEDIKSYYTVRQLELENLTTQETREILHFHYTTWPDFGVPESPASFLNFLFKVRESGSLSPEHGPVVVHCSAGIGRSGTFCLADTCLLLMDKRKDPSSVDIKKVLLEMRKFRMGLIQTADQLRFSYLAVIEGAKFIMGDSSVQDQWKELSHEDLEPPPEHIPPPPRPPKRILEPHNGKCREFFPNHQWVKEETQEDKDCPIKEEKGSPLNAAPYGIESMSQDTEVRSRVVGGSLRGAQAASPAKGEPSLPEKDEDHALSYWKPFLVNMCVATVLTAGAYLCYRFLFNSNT
Protocol: The PTP1b inhibitory activity of the tested compounds was measured at 37 °C using p-nitrophenyl phosphate (pNPP) as the substrate. The reaction was performed in a 96-well plate (final volume of 150 μL) and incubated for 30 min in the assay buffer (50 mM citrate (pH 6.0), 0.1 M NaCl, 1 mM EDTA, and 1 mM dithiothreitol) at 37 °C. Subsequently, the reaction was terminated by the addition of 10 M NaOH and the amount of p-nitrophenyl was determined by measuring the absorbance at 405 nm.

[1] = test system: insulin-stimulated glucose consumption; parameters: method as in PMID 23647825; conditions: cited from earlier work
fungi = test system: fungi; parameters: method as in PMID 23488669; conditions: cited from earlier work
B. cereus = test system: B. cereus; parameters: method as in doi:10.1007/s10600-016-1885-z; conditions: cited from earlier work
S. aureus = test system: S. aureus; parameters: method as in doi:10.1007/s10600-016-1885-z; conditions: cited from earlier work
nematode = experiment: anti-nematode activity

SHP1, sequence (P29350 whole entry): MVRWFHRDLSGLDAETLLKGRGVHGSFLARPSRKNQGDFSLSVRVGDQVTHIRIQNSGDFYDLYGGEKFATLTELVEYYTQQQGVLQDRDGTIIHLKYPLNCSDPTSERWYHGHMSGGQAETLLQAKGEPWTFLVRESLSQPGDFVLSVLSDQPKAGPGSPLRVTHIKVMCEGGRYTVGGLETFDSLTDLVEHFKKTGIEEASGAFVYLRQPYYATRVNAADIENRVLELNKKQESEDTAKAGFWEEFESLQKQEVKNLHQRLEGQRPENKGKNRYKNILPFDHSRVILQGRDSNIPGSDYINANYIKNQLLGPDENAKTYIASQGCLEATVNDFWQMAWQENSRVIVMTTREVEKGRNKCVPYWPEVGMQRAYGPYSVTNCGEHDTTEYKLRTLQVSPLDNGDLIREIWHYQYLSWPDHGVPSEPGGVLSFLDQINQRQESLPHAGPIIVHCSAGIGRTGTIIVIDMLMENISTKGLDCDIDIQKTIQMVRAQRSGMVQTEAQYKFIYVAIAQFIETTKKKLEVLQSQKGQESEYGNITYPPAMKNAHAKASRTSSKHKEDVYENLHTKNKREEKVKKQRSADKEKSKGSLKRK

Row | Structure (SMILES) | IC50 (CD45) [µM] | IC50 (SHP1) [µM] | IC50 (PTP1b) [µM] | IC50 (nematode) [µM] | effect on insulin-stimulated glucose consumption [1] | antifungal activity MIC (fungi) [µM] | MIC against B. cereus (B. cereus) | MIC against S. aureus (S. aureus)
1 | CC(C)CCC[C@](C)(O)c1ccc(CO)cc1O [(S)-(+)-sydonol] | – | – | – | – | potentiated | – | – | –
2 | C[C@@H]1CCC/C=C/C=C/[C@H](O)C[C@@H](O)C/C=C\C=C\[C@@H](O)C/C=C/C=C\C(=O)O1 [N13, Macrolactin A] | 17.9 | 14.6 ± 0.39 | > 20 | – | – | 40 to 300 | – | –
3 | CC(C)(O)CCCC(C)(O)c1ccc(C(=O)O)cc1O (stereo in doubt) [N4, (R)-(−)-Hydroxysydonic acid] | > 20 | 15.72 ± 0.11 | > 20 | – | – | – | less than 25 μM | less than 25 μM

Second part, led by results:

Row | IC50 (CD45) [µM] | IC50 (SHP1) [µM] | IC50 (PTP1b) [µM] | IC50 (nematode) [µM] | Structure (SMILES) | effect on insulin-stimulated glucose consumption [1] | antifungal activity MIC (fungi) [µM] | MIC against B. cereus (B. cereus) | MIC against S. aureus (S. aureus)
4 | 16 | 11.68 ± 0.08 | 14.2 ± 0.21 | – | CC(C)CCCC(C)(O)c1ccc(C(=O)NC(CO)C(=O)O)cc1O (centres unmarked) [N7, Serine sydonate] | – | – | – | –
5 | > 20 | > 20 | 15.88 ± 0.13 | 50 | CC(C)C(O)CC[C@](C)(O)c1ccc(C(=O)O)cc1O (stereo partly drawn) [N3, (7S)-(−)-10-Hydroxysydonic acid] | – | – | – | –
6 | > 20 | > 20 | > 20 | – | Cc1cc(O)cc(O)c1C(=O)O [N1, Orsellinic acid] | – | – | – | –
7 | > 20 | 8.35 ± 0.35 | 7.97 | – | CC(C)CCC[C@](C)(O)c1ccc(C(=O)O)cc1O [N2, Sydonic acid] | – | – | – | –
